These results are taken from PMC10280016 (Frontiers in Molecular Biosciences, 2023).

Entries after “also recorded” stand apart in the source; their conditions may differ. Read-outs that look alike come from different tables or passages of the source.

One data set is described as follows: in vitro. Conditions: human, Caco-2.
For data set [1], the system named is SARS-CoV-2 strain G614. Put plainly: microbe, parasite or virus in culture. It counts as cell-based. Conditions: for IC50: Severe acute respiratory syndrome coronavirus 2, 24 h, read-out: Anti-SARS-CoV-2 activity, spike immunostaining assay (IC50 ± SD).
Data set [2] has as its system SARS-CoV-2.
Data set [3] has as its system SARS-CoV-2. Conditions: primary human bronchial epithelial cells, air-liquid interface culture; ref ter Ellen et al., 2021; cited from earlier work.
In data set [4] the test system is SARS-CoV-2. Conditions: Vero E6 cells; ref ter Ellen et al., 2021; cited from earlier work.
The target of data set [5] is T1, SARS-CoV-2 main protease (Mpro) (Severe acute respiratory syndrome coronavirus 2, UniProt P0DTD1).
T1 construct: made in house
It counts as biochemical.

In data set [6] the test system is SARS-CoV-2. Conditions: ref Bojkova et al., 2023; cited from earlier work.
In data set [7] the test system is SARS-CoV-2 strain G614. Conditions: false positive in the assay; ref Bojkova et al., 2023; cited from earlier work.
The subject of data set [8] is SARS-CoV-2 strain G614. Format: cell-based. Conditions: at 10 µM.
The test system of data set [9] is SARS-CoV main protease (Mpro, 3CL protease). Conditions: ref Wen et al., 2007; cited from earlier work.
In the next data set the test system is SARS-CoV. Conditions: cited from earlier work.

`COc1ccc2c(c1)OC1c3ccc(O)cc3OCC21` (single isomer, unassigned; (-)) [Compound 2, (−)-medicarpin] came in with a CC50 in the data set “in vitro” of over 100 µM. Also, in the data set with SARS-CoV-2 strain G614 [1], the “Selectivity index (CC50/IC50)” value is over 3.0 and the IC50 – broadly, the concentration that gives 50% inhibition – came to 33.4 ± 9.7 µM.
Molecule `Oc1ccc2c(c1)OCC1c3cc4c(cc3OC21)OCO4` (single isomer, unassigned; (-)) [Compound 3, (−)-maackiain] registered a CC50 in “in vitro” of over 100 µM. In addition, in the data set with SARS-CoV-2 strain G614 [1], the IC50 was over 100 µM.
For `COc1cc2c(cc1O)C1COc3cc(O)ccc3C1O2` (single isomer, unassigned; (-)) [Compound 4, (−)-3,8-dihydroxy-9-methoxypterocarpan], the “MN Analysis: Activity classification (predicted anti-SARS-CoV-2 activity of the compound)” value in the data set on SARS-CoV-2 [2] is “inactive”. For the same molecule, in the data set “in vitro”, the CC50 was over 100 µM. For the same molecule, in the data set on SARS-CoV-2 strain G614 [1], the IC50 is over 100 µM.
As for `COc1cc(/C=C/c2ccc(O)cc2)cc(OC)c1` [Compound 1, (E)-pterostilbene], the Anti-SARS-CoV-2 activity result in the data set on SARS-CoV-2 [3] was “has shown anti-SARS-CoV-2 activity”. Further, the Anti-SARS-CoV-2 activity entry in the data set on SARS-CoV-2 [4] was “has shown anti-SARS-CoV-2 activity”. In “in vitro”, this molecule gave a CC50 of over 100 µM. Besides, in the data set with SARS-CoV-2 strain G614 [1], the “Selectivity index (CC50/IC50)” value is listed as over 2.9 and the IC50 came to 34.7 ± 1.6 µM.
Regarding `COc1ccc2c(c1)O[C@H]1c3ccc(OC)cc3OC[C@@H]21` [Compound 5, (−)-homopterocarpin], the “SARS-CoV-2 Mpro inhibition” value in data set [5] was “did not show any inhibitory activity; also recorded: no inhibitory activity”. Besides, in the data set on SARS-CoV-2 [2], the “MN Analysis: Activity classification (predicted anti-SARS-CoV-2 activity of the compound)” value is on record as “active”. The same molecule showed a CC50 in the data set “in vitro” of over 100 µM. Moreover, in the data set on SARS-CoV-2 strain G614 [1], the “Selectivity index (CC50/IC50)” value was over 5.8 and the IC50 came out at 17.2 ± 1.9 µM.
With `COc1ccc2c(c1)OC[C@H]1c3cc4c(cc3O[C@@H]21)OCO4` [Compound 6, (−)-pterocarpin], the “MN Analysis: Activity classification (predicted anti-SARS-CoV-2 activity of the compound)” value with SARS-CoV-2 [2] was “active”. For the same molecule, the CC50 in “in vitro” is over 100 µM. The IC50 in the data set with SARS-CoV-2 strain G614 [1] is over 100 µM.
The molecule `COc1ccc2c(c1)OC[C@H]1c3cc(O)c(OC)cc3O[C@@H]21` [Compound 7, (−)-8-hydroxyhomopterocarpan] showed a CC50 in “in vitro” of over 100 µM. Further, the IC50 in the data set on SARS-CoV-2 strain G614 [1] was over 100 µM.
In “in vitro”, `COc1ccc(CCCc2ccc(O)c(OC)c2)c(OC)c1` [Compound 9, pterosantalin D] came in with a CC50 of over 100 µM. The IC50 with SARS-CoV-2 strain G614 [1] was over 100 µM.
In the case of `COc1cc(O)c2c(=O)c(-c3ccc(O)cc3)coc2c1` [Compound 11, 7-O-methylgenistein], the CC50 in the data set “in vitro” was over 100 µM. In the data set on SARS-CoV-2 strain G614 [1], the “Selectivity index (CC50/IC50)” value is given as over 2.6 and the IC50 came out at 37.9 ± 5.4 µM.
In “in vitro”, `COc1cc(O)c2c(=O)c(-c3ccc(O)c(OC)c3)coc2c1` [Compound 12, 7,3′-di-O-methylorobol] came in with a CC50 of over 100 µM. The IC50 in the data set with SARS-CoV-2 strain G614 [1] was over 100 µM.
For `COc1cc(O)c2c(=O)c(-c3ccc(O)c(O)c3)coc2c1` [Compound 13, santal], in the data set “in vitro”, the CC50 was over 100 µM. Also, in the data set on SARS-CoV-2 strain G614 [1], the “Selectivity index (CC50/IC50)” value is reported as over 1.4 and the IC50 came to 74.2 ± 15.4 µM.
For `COc1ccc(-c2coc3cc(O)cc(O)c3c2=O)c(OC)c1O` [Compound 14, khrinone C], in the data set on SARS-CoV-2 [2], the “MN Analysis: Activity classification (predicted anti-SARS-CoV-2 activity of the compound)” value is “inactive”. This molecule yielded a CC50 in the data set “in vitro” of over 100 µM. In the data set with SARS-CoV-2 strain G614 [1], the IC50 is over 100 µM.
`COc1ccc2c(c1)oc(=O)c1c3ccc(OC)cc3oc21` [Compound 16, 3,9-di-O-methylcoumestrol] showed a CC50 in “in vitro” of over 100 µM. Besides, in the data set on SARS-CoV-2 strain G614 [1], the IC50 is over 100 µM.
In the case of `COc1ccc([C@@H]2COc3cc(OC)ccc3C2)c(O)c1` [Compound 22, (−)-isosativan], in “in vitro”, the CC50 was over 100 µM. For the same molecule, in the data set with SARS-CoV-2 strain G614 [1], the “Selectivity index (CC50/IC50)” value is recorded as over 2.5 and the IC50 was determined as 40.8 ± 1.8 µM.
For `COc1ccc([C@@H]2COc3cc(OC)ccc3C2=O)cc1` [Compound 23, (+)-7,4′-di-O-methyldihydrodaidzein], in the data set “in vitro”, the CC50 is over 100 µM. For the same molecule, in the data set with SARS-CoV-2 strain G614 [1], the “Selectivity index (CC50/IC50)” value is reported as over 1.9 and the IC50 was 53.3 ± 6.2 µM.
Regarding `C[C@H](NC(=O)C(=O)Nc1ccccc1C(C)(C)C)C(=O)N[C@@H](CC(=O)O)C(=O)COc1c(F)c(F)cc(F)c1F` [emricasan], the “Effect on SARS-CoV-2 replication” value in the data set with SARS-CoV-2 [6] is recorded as “did not affect SARS-CoV-2 replication”. For the same molecule, the “Effect on SARS-CoV-2-induced caspase 3/7 activity” value in the data set with SARS-CoV-2 strain G614 [7] is on record as “supressed SARS-CoV-2-induced caspase 3/7 activity”.
Regarding `CCC(CC)COC(=O)[C@H](C)N[P@](=O)(OC[C@H]1O[C@@](C#N)(c2ccc3c(N)ncnn23)[C@H](O)[C@@H]1O)Oc1ccccc1` [remdesivir, reference compound], the “Anti-SARS-CoV-2 activity, Caspase assay [% inhibition]” value in the data set on SARS-CoV-2 strain G614 [8] is reported as 93.4 (at 10 µM) % inhibition. For the same molecule, in “in vitro”, the CC50 is over 10 µM. In addition, in the data set with SARS-CoV-2 strain G614 [1], the “Selectivity index (CC50/IC50)” value was over 58.8, the “Selectivity index CC50/IC50” value is on record as over 58.8 and the IC50 turned out to be 0.17 ± 0.01 µM.
As to `O=C1OC[C@H](Cc2ccc3c(c2)OCO3)/C1=C\c1ccc2c(c1)OCO2` [savinin], the “Inhibition of SARS-CoV main protease, mode” value in data set [9] is reported as “competitive inhibition”. Besides, the “Anti-SARS-CoV activity EC50” value in the data set with SARS-CoV is given as “low micromolar range”.
